{"source": "patent US20240398737A1", "about": "“FUNCTIONALIZED LONG-CHAIN HYDROCARBON MONO- AND DI-CARBOXYLIC ACIDS AND DERIVATIVES THEREOF, AND THEIR USE FOR THE PREVENTION OR TREATMENT OF DISEASE” (Espervita Therapeutics, Inc., priority 2021, published 2024)", "key": {"human ACLY": {"biological_target": "human ACLY (Homo sapiens (Human), UniProt P53396)", "sequence (P53396 whole entry)": "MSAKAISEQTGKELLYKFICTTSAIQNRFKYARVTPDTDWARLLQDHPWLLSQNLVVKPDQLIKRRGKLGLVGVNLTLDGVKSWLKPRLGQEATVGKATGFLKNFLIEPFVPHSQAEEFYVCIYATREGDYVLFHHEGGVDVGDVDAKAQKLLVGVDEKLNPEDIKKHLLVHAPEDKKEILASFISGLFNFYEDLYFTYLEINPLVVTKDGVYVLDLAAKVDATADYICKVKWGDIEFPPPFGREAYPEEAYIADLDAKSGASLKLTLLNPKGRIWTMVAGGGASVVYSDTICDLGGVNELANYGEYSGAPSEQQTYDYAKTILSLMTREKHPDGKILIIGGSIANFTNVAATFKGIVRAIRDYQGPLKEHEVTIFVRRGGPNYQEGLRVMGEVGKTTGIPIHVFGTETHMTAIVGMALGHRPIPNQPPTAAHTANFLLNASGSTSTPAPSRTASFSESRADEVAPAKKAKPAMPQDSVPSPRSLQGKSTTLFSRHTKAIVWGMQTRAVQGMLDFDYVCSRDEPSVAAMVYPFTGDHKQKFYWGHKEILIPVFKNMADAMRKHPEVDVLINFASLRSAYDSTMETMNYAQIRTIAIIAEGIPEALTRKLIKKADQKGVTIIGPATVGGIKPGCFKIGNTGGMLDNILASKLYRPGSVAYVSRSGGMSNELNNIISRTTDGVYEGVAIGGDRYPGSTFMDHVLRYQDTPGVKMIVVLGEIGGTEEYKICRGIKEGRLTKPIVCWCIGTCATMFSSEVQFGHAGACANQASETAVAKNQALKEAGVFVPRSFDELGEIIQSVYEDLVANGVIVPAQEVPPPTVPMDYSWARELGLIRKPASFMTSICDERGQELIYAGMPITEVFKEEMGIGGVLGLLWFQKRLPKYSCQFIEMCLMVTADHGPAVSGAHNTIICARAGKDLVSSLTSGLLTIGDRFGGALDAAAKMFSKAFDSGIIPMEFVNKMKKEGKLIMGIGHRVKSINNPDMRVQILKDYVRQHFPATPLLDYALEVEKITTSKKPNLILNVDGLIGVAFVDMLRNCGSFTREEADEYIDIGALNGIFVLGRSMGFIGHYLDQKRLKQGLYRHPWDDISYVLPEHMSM", "test": "ATP-citrate lyase (ACLY) enzymatic assay (ADP-Glo)", "format": "biochemical", "conditions": "recombinant human ACLY; 10 concentrations from 300 μM; Runs 1-3; read-out: Compound IC50 (M) ACLY", "experimental": "ATP citrate lyase was obtained from Sino Biological Inc. Cat #11769-H07B, Lot #LC08DE1701. It was prepared from a DNA sequence encoding the human ACLY (P53396) (Met 1-Met 1101) expressed in Baculovirus-Insect Cells, with a polyhistidine tag at the N-terminus. The recombinant human ACLY consists of 1120 amino acids and has a calculated molecular mass of 123 kDa. It migrates as an approximately 110 kDa band in SDS-PAGE under reducing conditions. The enzyme came as a lyophilized powder in sterile 20 mM Tris, 500 mM NaCl, pH 8.0, 10% glycine. Normally 5%-8% trehalose and mannitol are added as protectants before lyophilization. The recombinant human ACLY from Sino Biological was formulated in 45 mM Tris-HCl, pH 8.0, 124 mM NaCl, 2.4 mM KCl, 18 mM glutathione, 10% glycerol, and 3 mM DTT.\nTo detect ADP produced from ACL assay, the ADP-Glo™ assay format from Promega, Madison, WI, was used, to detect the conversion of ATP to ADP. […] This assay is performed in two steps: i) after the ACL-mediated enzymatic reaction that utilizes ATP and produces ADP, ADP-Glo™ Reagent is added to terminate the kinase reaction and deplete the remaining ATP, and ii) the Kinase Detection Reagent is added to convert ADP to ATP and allow the newly synthesized ATP to be measured using a luciferase/luciferin reaction. The light generated, measured in a luminometer, correlates to the amount of ADP generated in the ACL assay, which is indicative of ACL activity.\nData represent nM or μM ADP produced, % Activity (relative to no inhibitor controls), and curve fits were performed by GraphPad Prism software. The IC50 concentration-response curves were generated for ADPGlo™ using recombinant human ACL from Sino Biologicals Inc."}, "[1]": {"system": "Mouse primary hepatocytes", "test": "14C-acetate incorporation into total lipids in mouse primary hepatocytes", "format": "cell-based", "conditions": "incorporation of 14C-acetate in primary mouse hepatocyte total lipids, 4 hours; for inhibition at 100 µM: read-out: % change from control at 100 μM ± SEM(n)", "experimental": "After perfusion, collagen digested liver cells were re-suspended in William's E media (11 mM glucose) (Gibco) supplemented with 10% fetal bovine serum (FBS) (Gibco), 2 mM L-glutamine (Gibco) and 1% Antibiotic-Antimycotic (Gibco) mixture and seeded in white opaque 96-well plates. On the following day, the cells were serum-starved for 2 hours, then treated with 0 μM, 0.1 μM, 0.3 μM, 0.5 μM, 1 μM, 3 μM, 10 μM, and 100 μM of Compound I-32, Compound I-1, Compound III-1 or Reference Compound (e.g., any of Compounds A-E or bempedoic acid) in the presence of ^14C-Acetate (1 μCi/ml, PerkinElmer). Each of Compound I-32, Compound I-1, Compound III-1, and Reference Compound was solubilized in 100% DMSO to a final concentration of 100 mM stock solution. In the experimental condition, the stock solution was diluted in serum free media (William's E media (11 mM glucose) (Gibco), 2 mM L-glutamine (Gibco) and 1% Antibiotic-Antimycotic) to yield the desired concentration of each compound. […] After 4 hours of treatment, the plates were washed two times with PBS (×1) and 100 μL microscint fluid (Microscint 0, part #601361) was added in each well. Plates were wrapped with aluminum foil and were shaken at 250 rpm for 2 h. After 2 h of shaking, ^14C incorporation into lipid was determined by liquid scintillation counting using a TopCount NXT Microplate Scintillation and Luminescence Counter (Perkin Elmer).\nThe effects of Compound I-32, Compound I-1, and Compound III-1 on mouse primary hepatocyte lipogenesis are represented in Table 13. Each Compound was assayed at a concentration of 0 μM (vehicle control), 0.1 μM, 0.3 μM, 0.5 μM, 1 μM, 3 μM, 10 μM, and 100 μM, unless otherwise noted. Statistically significant inhibition was determined by one-way ANOVA and Dennett's post hoc test where appropriate. […] IC50 values were determined by nonlinear regression. All statistical analyses were carried out using GraphPad Prism 8 software. A p-value of less than or equal 0.05 was considered significant."}, "[2]": {"test": "Synthesis of CoA derivatives in rat liver microsomes (LCMS detection)", "format": "in vitro ADME", "conditions": "1 mM substrate, 30 min sample", "experimental": "Reaction products were eluted using the gradient shown below: […]\nFormation and detection of the Co-A derivatives of Compounds 1-32, 1-61, I-1 or III-1 in rat liver microsomes: 1 mM of each compound (Compounds I-32, I-61, I-1 or III-1) or palmitic acid (control) were used as substrate in the rat microsomal preparation for 0 and 30 min and extracted as described above. […] Further confirmation was obtained by exposing the compound to a collision energy causing the characteristic neutral loss of 3′-phosphonucleoside diphosphate (507 Da) producing the fragment ion 499.3 m/z. There was no evidence of the CoA derivative in the time 0 min sample."}, "[3]": {"system": "human hematopoietic stem and progenitor cells", "test": "Megakaryopoiesis and platelet production in cultured human hematopoietic stem and progenitor cells", "format": "cell-based", "conditions": "added day 0, 8 days culture, I-32 and I-1 30 μM, ABT-737 6 μmol", "experimental": "Materials and Methods. Hematopoietic stem and progenitor cells, identified as viable CD45+ CD34+ cells, were isolated from peripheral blood of healthy donors by a method known in the art (see Ivetic N, Nazi I, Karim N et al. Producing megakaryocytes from a human peripheral blood source. Transfusion 2016; 56:1066-74). These isolated cells were then analyzed for purity before being expanded for four days using a commercial supplement to increase their cell population. After expansion, the cells were analyzed for purity, washed, and stimulated with a saturating concentration of thrombopoietin (20 ng/mL) and stem cell factor (50 ng/mL) to begin megakaryopoiesis. Compound I-32 and Compound I-1 were added at this timepoint at a concentration of 30 μM. The cells were then cultured for 8 days to develop into megakaryocytes and analyzed via flow cytometry to assess their number, maturity, and platelet count as defined by CD41a, CD42b and Calcein-AM expression. In addition, Compound I-32 and Compound I-1 were added to cells during the later stages of development (day 6) to assess their impact on maturation. ABT-737 (6 μmol) was used as a positive control and a DMSO vehicle control (<0.15% v/v) was the negative control. All counts are normalized to a media control (PBS) as a reference for basic cell growth.\nStatistical analysis. Statistical analyses were carried out by comparing effects on measured parameters in comparison to vehicle control. A value of […] (One-way ANOVA multiple comparisons) was considered as significant.\nTwo isolations were performed from two healthy donors (2 males) and used to assess the impacts of Compound I-32 and Compound I-1. For one of the isolations, enough expanded hematopoietic stem and progenitor cells (HSPC) (Experiment 1) were obtained so that the addition of the compounds on day 6 was also performed along with the initial experiment. For the other experiment (Experiment 2) only an 8-day incubation was performed.\nAll results were normalized to a reference media (PBS) and Compound I-32 and Compound I-1 were compared to a vehicle control. Reference compound ABT-737 is a known BCL-2 inhibitor and was used a positive control. Results in FIGS. 25A-25J are the summary of a single experiments conducted in triplicates. No statistical inhibition was detected for Compound I-32 or Compound I-1 (p>0.05 one-way ANOVA)."}}}
{"smiles": "COc1ccc(-c2ccccc2)cc1NS(=O)(=O)c1cc(Cl)cc(Cl)c1O", "note": "[BMS-303141, reference compound]", "values": [{"measurement": "IC50", "setting": "human ACLY", "result": "4.45e-07", "unit": "M"}]}
{"smiles": "CC(C)(CCCCCCC(=O)CCCCCCC(C)(C)C(=O)O)C(=O)O", "note": "[E]", "values": [{"measurement": "% change from control at 100 μM ± SEM(n)", "setting": "[1]", "result": "−62 ± 4.5 (n = 4) %"}]}
{"smiles": "CC(C)(CCCc1ccccc1CCCC(C)(C)C(=O)SCCNC(=O)CCNC(=O)[C@H](O)C(C)(C)COP(=O)(O)OP(=O)(O)OC[C@H]1O[C@@H](n2cnc3c(N)ncnc32)[C@H](O)[C@@H]1OP(=O)(O)O)C(=O)O", "note": "[I-61—CoA]", "values": [{"measurement": "Formation of the CoA derivative (LCMS detection, fragmentation confirmation)", "setting": "[2]", "result": "could not be confirmed"}]}
{"smiles": "CC(C)(CO)CCCCC(=O)CCCCC(C)(C)C(=O)O", "note": "[B]", "values": [{"measurement": "IC50", "setting": "[1]", "result": 25.6, "unit": "µM"}, {"measurement": "inhibition at 100 µM", "setting": "[1]", "result": "69 ± 2.3", "unit": "%"}]}
{"smiles": "CC(C)(CCCc1ccc(CCCC(C)(C)C(=O)O)cc1)C(=O)O", "note": "[III-1]", "values": [{"measurement": "% change from control at 100 μM ± SEM(n)", "setting": "[1]", "result": "−70 ± 2.2 (n = 4) %"}]}
{"smiles": "CC(C)(CCCCCC(O)CCCCCC(C)(C)C(=O)O)C(=O)O", "note": "[BA, Bempedoic acid]", "values": [{"measurement": "% change from control at 100 μM ± SEM(n)", "setting": "[1]", "result": "−79 ± 1.5 (n = 4) %"}]}
{"smiles": "CN(C)CC[C@H](CSc1ccccc1)Nc1ccc(S(=O)(=O)NC(=O)c2ccc(N3CCN(Cc4ccccc4-c4ccc(Cl)cc4)CC3)cc2)cc1[N+](=O)[O-]", "note": "[ABT-737, reference compound]", "values": [{"measurement": "CD41a+ mean fluorescence intensity (MFI), normalized", "setting": "[3]", "result": "46±34", "unit": "%"}, {"measurement": "Normalized cell size (CD41a+)", "setting": "[3]", "result": "81±6", "unit": "%"}, {"measurement": "CD41a CD42b+ counts (mature megakaryocytes), normalized to reference media control", "setting": "[3]; average±SD", "result": "2±1", "unit": "%"}, {"measurement": "CD41a+ cells (megakaryocytes), normalized to reference media control", "setting": "[3]; average±SD", "result": "9±5", "unit": "%"}, {"measurement": "Platelet counts, normalized to reference media control", "setting": "[3]; average±SD", "result": "3±3", "unit": "%"}]}
{"smiles": "CC(C)(CO)CCCCC(=O)CCCCC(C)(C)CO", "note": "[A]", "values": [{"measurement": "% change from control at 100 μM ± SEM(n)", "setting": "[1]", "result": "−41 ± 4.8 (n = 2) %"}]}
{"smiles": "CC(C)(CCCCCCCCCCCC(C)(C)C(=O)O)C(=O)O", "note": "[F]", "values": [{"measurement": "% change from control at 100 μM ± SEM(n)", "setting": "[1]", "result": "−91 ± 3.6 (n = 4) %"}]}
{"smiles": "CC(C)(CO)CCCCCC(=O)CCCCCC(C)(C)CO", "note": "[D]", "values": [{"measurement": "% change from control at 100 μM ± SEM(n)", "setting": "[1]", "result": "−90 ± 1.5 (n = 4) %"}]}
{"smiles": "CC(C)(CCCCCC(=O)CCCCCC(C)(C)C(=O)O)C(=O)O", "note": "[C]", "values": [{"measurement": "inhibition at 100 µM", "setting": "[1]", "result": "76 ± 41", "unit": "%"}]}
